IC50 data for 3 compounds are collected here from patent US5318970A, “Isoxazole compounds, pharmaceutically acceptable salts thereof and medical uses thereof” (Taiho Pharmaceutical Co., Ltd., priority 1990, dated 1994).

Each structure is given as a SMILES string.

The target of one experiment is T1, 5-Lipoxygenase (Cavia porcellus, UniProt A0A286X958).
T1 construct: the polymorphonuclear leukocytes were collected and the cytosol fraction was obtained as an enzyme source; endogenous in cells; host or cells: guinea pig peritoneal polymorphonuclear leukocytes (casein-elicited), cytosol fraction
T1 sequence (A0A286X958 1-674): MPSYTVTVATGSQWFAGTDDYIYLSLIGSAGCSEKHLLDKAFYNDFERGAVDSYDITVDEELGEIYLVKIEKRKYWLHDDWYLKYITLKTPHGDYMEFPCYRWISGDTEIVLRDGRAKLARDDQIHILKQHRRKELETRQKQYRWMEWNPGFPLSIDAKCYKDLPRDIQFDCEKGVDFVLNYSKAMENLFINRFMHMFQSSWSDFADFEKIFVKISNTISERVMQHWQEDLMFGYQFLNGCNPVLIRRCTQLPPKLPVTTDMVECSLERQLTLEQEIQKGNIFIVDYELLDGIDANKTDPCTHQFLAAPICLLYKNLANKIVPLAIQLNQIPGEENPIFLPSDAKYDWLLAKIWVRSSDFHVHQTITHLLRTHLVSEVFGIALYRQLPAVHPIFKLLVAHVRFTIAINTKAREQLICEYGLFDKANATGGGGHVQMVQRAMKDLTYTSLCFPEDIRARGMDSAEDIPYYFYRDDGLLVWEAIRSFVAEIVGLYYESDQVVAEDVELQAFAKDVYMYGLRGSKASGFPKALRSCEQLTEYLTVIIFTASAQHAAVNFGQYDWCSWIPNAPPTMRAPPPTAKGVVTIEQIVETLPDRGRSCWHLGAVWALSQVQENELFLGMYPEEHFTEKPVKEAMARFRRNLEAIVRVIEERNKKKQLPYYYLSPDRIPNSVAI
Briefly: 5-Lipoxygenase inhibitory effect (14C-arachidonic acid to 5-hydroxyeicosatetraenoic acid, cytosol of polymorphonuclear leukocytes). Type of experiment: biochemical. Particulars: guinea pig polymorphonuclear leukocyte cytosol; 5-hydroxyeicosatetraenoic acid by thin layer chromatography. The procedure:
(2) 5-Lipoxygenase inhibitory effect
The assay was carried out by the method described in Kenkichi Ochi et al., J. Biol. Chem., 258, 5754-5758 (1983).
Casein was injected into the abdominal cavity of a guinea pig, and the polymorphonuclear leukocytes were collected and the cytosol fraction was obtained as an enzyme source. ^14 C-arachidonic acid was reacted with the enzyme and the test drugs at various concentrations over a predetermined period of time. The obtained 5-hydroxyeicosatetraenoic acid was separated by thin layer chromatography and the radioactivity was determined. The IC50 values were calculated by the comparison with the radioactivity of the control.

A further experiment concerns the target Cyclooxygenase. Briefly: Cyclooxygenase inhibitory effect (14C-arachidonic acid to prostaglandin E2, seminal vesicular gland microsomes). It is filed as biochemical. Particulars: prostaglandin E2 by thin layer chromatography. The protocol: (1) Cyclooxygenase Inhibitory effect
This assay was carried out by the method described in Russell J. Taylor et al., Biochem. Pharmacol., 25, 2479-2484 (1976).
^14 C-arachidonic acid was reacted with seminal vesicular gland microsomes and the test drugs at various concentrations over a predetermined period of time and the obtained prostaglandin E2 was separated by thin layer chromatography. The radioactivity of prostaglandin E2 was determined by liquid scintillation counter. The IC50 values were calculated by the comparison with the radioactivity of the control.

In general, IC50 refers to the concentration that inhibits the measured activity by half. Higher therefore signals weaker potency in that assay.

On to `COc1ccc(-c2noc(CC(=O)NCCN3CCN(CCCCCCCCCCO)CC3)c2-c2ccc(OC)cc2)cc1` [Compound 6], for which the IC50 against 5-Lipoxygenase came out at 1800 nM; at Cyclooxygenase it was 121 nM.

`COc1ccc(-c2noc(CC(=O)NC(CN3CCN(CCCCCCCCCCO)CC3)c3ccccc3)c2-c2ccc(OC)cc2)cc1` (stereo not drawn) [Compound 7]: the IC50 against 5-Lipoxygenase worked out at 2500 nM; against Cyclooxygenase, 146 nM.

`CCCCCCCCCCN1CCN(C(=O)CNC(=O)Cc2onc(-c3ccc(OC)cc3)c2-c2ccc(OC)cc2)CC1` [Compound 8]: the IC50 came out at 5900 nM against 5-Lipoxygenase and 66 nM against Cyclooxygenase.
